Assay results published in patent US10765621B2, “Extracts of halimione portulacoides and their application” (Cutech Srl, priority 2013, dated 2020).

Experiments:
IL-1α = IL-1α release by ex-vivo human skin stimulated with 2% SDS (ELISA); assay type: cell-based
Protocol: In order to study the biological activity of the extracts from Halimione on the inflammatory response of skin to irritation, the experimental protocol summarized below was adopted: Ex-vivo skin samples (7 mm in diameter) were cultivated for 24 hours in 6-well plates (4 skin samples/well) with 2.5 ml/well of modified Williams E medium.
After 24 hours of culture the culture medium was renewed and the skin samples 2 to 6 received the irritant stimulus (2% SDS) through topical application of 4 μl of preparation on each skin sample. After 3 hours the stimulus was removed by means of cotton buds and then 4 μl of extract or dexamethasone were topically administered to the groups 3 to 6. Stimulus and lenitive treatments were diluted in 50% DMSO.
After a further 24 hours of cultivation, the culture media were separately collected from each group and the released IL-1α quantified via ELISA (BioLegend ELISAMAX cat. n. 434905).
Table 14 reports the average values of IL-1α obtained from the two medium samples (4 skin samples/well) collected for each experimental group.

hair follicles = details: usual response, indicative; cited from earlier work

C[C@@H]1C[C@H]2[C@@H]3CCC4=CC(=O)C=C[C@]4(C)[C@@]3(F)[C@@H](O)C[C@]2(C)[C@@]1(O)C(=O)CO [Dexam., dexamethasone]
IL-1α released in culture medium (IL-1α; 2% SDS stimulus, then lenitive treatment 10 mM (positive control), 24 h): 9.9 pg/mL

CCCCCCCCCCCCOS(=O)(=O)[O-].[Na+] [SDS]
IL-1α released in culture medium (IL-1α; 2% SDS stimulus without lenitive treatment (negative control), unstimulated control 1.3): 14.8 pg/mL

insulin
Hair follicle growth increment produced by well-known stimulants / positive controls (hair follicles): 10%
